The subject of one test is ONS-76. As to the kind of experiment: Antitumor activity against human ONS-76 cells xenografted in athymic nude mouse assessed as inhibition of tumor growth at 100 mg/kg, po QD for 9 days. Conditions: ONS-76, 216 h, time 9 day, read-out: TGI. In kind it is functional.
A short description of test [1]: Antitumor activity against human D384 Med cells assessed as reduction in cell viability incubated for 24 hrs by Alamar blue assay. It counts as functional, cell-based.
A short description of test [2]: Antitumor activity against human D341 Med cells assessed as reduction in cell viability incubated for 24 hrs by Alamar blue assay. In kind it is functional, cell-based.
Test [3] can be described thus: Antitumor activity against human D425 Med cells assessed as reduction in cell viability incubated for 24 hrs by Alamar blue assay. In kind it is functional, cell-based.
Another test relates to Mus musculus. As to the kind of experiment: Antitumor activity in Ptch+/- p53-/- mutant mouse medulloblastoma allograft model assessed as increase in survival rate at 50 mg/kg, po QD relative to control (Rvb=75 days). In kind it is functional.
The target of test [4] is Vascular endothelial growth factor receptor 2 (Homo sapiens, UniProt P35968). Nature of the test: Inhibition of human VEGFR2 (789 to 1356 residues) assessed as reduction in autophosphorylation at Y1175 residues using poly (Glu4Tyr1) peptide and ATP as substrate incubated for 60 mins by ADP-Glo Kinase Assay.
Chain of Vascular endothelial growth factor receptor 2 (P35968 whole entry, the tested form may be a part): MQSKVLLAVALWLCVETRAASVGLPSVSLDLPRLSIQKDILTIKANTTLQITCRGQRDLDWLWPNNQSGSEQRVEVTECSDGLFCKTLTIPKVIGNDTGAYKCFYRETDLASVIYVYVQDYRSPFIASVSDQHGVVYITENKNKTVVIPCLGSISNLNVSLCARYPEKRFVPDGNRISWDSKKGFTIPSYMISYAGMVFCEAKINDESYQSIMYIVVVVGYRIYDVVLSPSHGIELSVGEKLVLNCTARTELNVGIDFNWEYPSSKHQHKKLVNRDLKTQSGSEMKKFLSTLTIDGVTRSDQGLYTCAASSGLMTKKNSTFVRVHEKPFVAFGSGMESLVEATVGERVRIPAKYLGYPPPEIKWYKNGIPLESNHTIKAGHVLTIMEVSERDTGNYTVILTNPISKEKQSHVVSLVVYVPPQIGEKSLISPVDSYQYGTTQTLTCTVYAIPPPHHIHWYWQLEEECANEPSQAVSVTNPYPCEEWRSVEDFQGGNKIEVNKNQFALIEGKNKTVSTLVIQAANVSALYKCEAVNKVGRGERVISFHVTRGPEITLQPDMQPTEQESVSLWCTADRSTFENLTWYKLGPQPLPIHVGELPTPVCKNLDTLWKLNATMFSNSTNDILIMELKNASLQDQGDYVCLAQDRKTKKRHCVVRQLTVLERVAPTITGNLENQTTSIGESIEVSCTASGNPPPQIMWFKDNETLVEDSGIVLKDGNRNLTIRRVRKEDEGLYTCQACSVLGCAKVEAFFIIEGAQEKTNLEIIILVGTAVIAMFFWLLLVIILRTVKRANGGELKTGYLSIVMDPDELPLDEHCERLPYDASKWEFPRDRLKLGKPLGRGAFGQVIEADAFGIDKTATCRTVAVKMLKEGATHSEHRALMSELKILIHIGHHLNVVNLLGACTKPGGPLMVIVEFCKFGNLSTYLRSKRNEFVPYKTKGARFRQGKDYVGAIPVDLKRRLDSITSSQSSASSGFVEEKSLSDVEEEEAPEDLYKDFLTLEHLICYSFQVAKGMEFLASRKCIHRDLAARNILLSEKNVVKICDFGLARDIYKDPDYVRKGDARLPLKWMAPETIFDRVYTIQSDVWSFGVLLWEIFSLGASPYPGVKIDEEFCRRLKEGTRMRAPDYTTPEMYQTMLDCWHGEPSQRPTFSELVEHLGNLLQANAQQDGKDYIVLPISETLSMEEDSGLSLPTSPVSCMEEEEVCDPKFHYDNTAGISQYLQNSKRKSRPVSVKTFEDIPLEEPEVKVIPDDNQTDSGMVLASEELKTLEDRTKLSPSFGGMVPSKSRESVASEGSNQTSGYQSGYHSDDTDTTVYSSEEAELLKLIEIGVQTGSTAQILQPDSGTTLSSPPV
The test system of a further test is D283 Med. As to the kind of experiment: Anticancer activity against human D283 Med cells assessed as reduction in cell viability incubated for 72 hrs. In kind it is functional, cell-based.
A short description of test [5]: Anticancer activity against human MED-MEB-8A cells assessed as reduction in cell viability incubated for 72 hrs. It counts as functional, cell-based.

In ChEMBL document CHEMBL5096161, “Medulloblastoma drugs in development: Current leads, trials and drawbacks” (Eur J Med Chem, 2021) one finds inhibition in vivo, IC50 and MST data, which are given here for 4 compounds.

Molecules are shown by their SMILES.

As to `COc1cc2c(Oc3ccc(NC(=O)C4(C(=O)Nc5ccc(F)cc5)CC4)cc3F)ccnc2cc1OCCCN1CCOCC1` [FORETINIB], the inhibition in vivo at 100 mg/kg in the test on ONS-76 amounted to 50%.

For the compound `CCCCCCCCc1ccc(CCC(N)(CO)CO)cc1` [FINGOLIMOD], the IC50 in test [1] was found to be 7.3 µM; in test [2], 5.5 µM; in test [3] it was 7.5 µM.

For `COC(=O)Nc1nc2cc(C(=O)c3ccccc3)ccc2[nH]1` [MEBENDAZOLE], in the test with Mus musculus, the MST worked out at 113 days. For the same compound, in test [4], the half-inhibitory concentration (IC50) is 4.3 µM.

As to `C[C@H]1O[C@@H](O[C@H]2[C@@H](O)C[C@H](O[C@H]3[C@@H](O)C[C@H](O[C@H]4CC[C@@]5(C)[C@H](CC[C@@H]6[C@@H]5C[C@@H](O)[C@]5(C)[C@@H](C7=CC(=O)OC7)CC[C@]65O)C4)O[C@@H]3C)O[C@@H]2C)C[C@H](O)[C@@H]1O` [DIGOXIN], the values for the IC50 (in the test on D283 Med; in test [5]) were 0.01 µM and 0.106 µM, respectively.
